This is an account of results in US20220074923A1, “METHODS OF IDENTIFYING PARKIN-MEDIATED MITOPHAGY ACTIVATING AGENTS” (THE GOVERNING COUNCIL OF THE UNIVERSITY OF TORONTO, priority 2018, published 2022).

Data set [1] relates to HeLa cells. In words: Immunoblotting of Mfn2 degradation after Ac220 and CCCP. In kind it is cell-based. To be noted: Ac220 pre-treatment, 10 μM CCCP. The method, then:
(§1) A) HeLa cells expressing GFP Parkin WT and mito-dsRed were treated with either DMSO, 10 μM CCCP or 4 μM Ac220 in combination with CCCP. B) Cell lysates from HeLa cells pre-treated with either DMSO or 4 μM Ac220 prior to addition of 10 μM CCCP were separated by SDS-PAGE and immunoblotting was performed against Mfn2 and actin. C) Cells were pre-treated with either DMSO, 2 μM Ac220, 1 μM Ac220 prior to addition of 10 μM CCCP. D) Cells were pre-treated with indicated concentrations of Ac220 prior to addition of 10 μM CCCP for 1 hour. Cell lysates were separated by SDS-PAGE and immunoblotting was performed against Mfn2 and actin. E) Densitometry analysis of Mfn2 levels normalized to loading control […]. Data is presented as mean±s.d. F) HeLa GFP Parkin cells were transfected with HA-PINK1 and pre-treated with either DMSO or Ac220 prior to addition of CCCP and Mg132. G) HeLa GFP Parkin cells and H) SH-SY5Y cells were pre-treated with either DMSO or Ac220 prior to addition of CCCP for the indicated time. Immunoblotting was performed using antibodies against PINK1 and actin.
Lysates were harvested using lysis buffer (0.1M Tris HCl, 0.01% SDS, pH 9) with 1× protease inhibitor cocktail (BioShop, PIC002.1). […] 12% SDS-PAGE gels were used to run samples to be analyzed for LC3 conversation and for Tom20 and 10% gels were run for all other samples. […]
Background: A western blot detects proteins with antibodies after separation by electrophoresis.

Data set [2] has as its system PINK1. In words: PINK1 accumulation after mitochondrial damage (immunoblot). In kind it is cell-based. The following applies: Ac220 pre-treatment, CCCP; HeLa GFP Parkin and SH-SY5Y cells. How it is done: as §1
Data set [3] concerns HEK293 GFP Parkin cells. The data set can be described thus: High throughput small molecule screen for Parkin recruitment to mitochondria (high content imaging). The data set is classed as cell-based. To be noted: for rank in the kinase inhibitor library screen (rank order by z-score): 4 μM, 16 h, then CCCP 2 h, rank out of 480, low rank = activator of Parkin recruitment, high rank = inhibitor; for % of cells with mitochondrial Parkin: CCCP only (DMSO pinned). How it is done:
10 uL of 0.1 mg/mL Poly-D-Lys solution was added to 384-well plates for 5 minutes, followed by a PBS wash. Plates were dried for at least 2 hours. 50 μL of 600 000 HEK293 GFP Parkin cell/mL of DMEM was dispensed into each well. After 24 hours incubation to allow the cells to adhere, 200 nL of small molecules (or DMSO in columns 1, 2, 23 and 24) were pinned. Following a 16-hour incubation, 200 nL of 5 mM CCCP were added to all wells except columns 1 and 2, into which 200 nL of DMSO was added. Following 2-hour incubation, cells were fixed with 4% paraformaldehyde (PFA) and stained with 50 μL of 1 μg/mL DAPI solution for 15 minutes. After the final PBS wash, plates were ready for high content microscopy.
Images were acquired on IN Cell Analyzer 6000 (GE Healthcare), equipped with sCMOS camera (2048×2048), and 20x/0.45 NA Plan Fluor objective (Nikon) in open aperture mode using 1×1 binning. Image analysis was performed using Columbus Image Analysis System (PerkinElmer). Nuclei were initially detected in DAPI channel, followed by whole cell segmentation in GFP channel. Using PhenoLOGIC machine learning plug-in, cells were split into 2 sub-populations: cells with even GFP-Parkin distribution and cells where GFP-Parkin was localized to mitochondria. The percentage of cells with mitochondrial GFP-Parkin was determined per well. The molecules were then rank ordered based on z-score, which is calculated using the formula: […]
where x is the percentage of cells with mitochondrial GFP-Parkin for a specific small molecule, μ is the average percentage of cells with mitochondrial Parkin in positive control columns 23 and 24, where cells are treated with CCCP only.
These cell lines were screened across 2 biological replicates with compounds from the kinase inhibitor (n=480) and Prestwick (n=1120) collections. The 3-day screening protocol consisted of (1) seeding cells, (2) pinning small molecules at 4 μM concentration and (3) inducing mitophagy with CCCP, followed by processing of plates for high content imaging. Following image acquisition, DAPI staining was used to segment cells within each image. Supervised machine learning was used to classify cells into two classes: (1) cells with cytosolic Parkin distribution and (2) those with Parkin localized to mitochondria. […] Compounds which increased the proportion of class 2 cells across 2 biological replicates, compared to the CCCP-only treated cells (FIG. 10), as indicated by their z-score (FIG. 11), were considered hits.

The subject of data set [4] is HeLa cells expressing GFP Parkin WT and mito-dsRed. In words: Parkin recruitment after Ac220 pre-treatment and CCCP. In kind it is cell-based. To be noted: Ac220 pre-treatment, 10 μM CCCP. The method, then:
as §1

Data set [5] has as its system SH-SY5Y cells. In words: Cell viability by crystal violet staining. In kind it is cell-based. The following applies: CCCP alone, 24 hours. How it is done:
A) SH-SY5Y cells were pre-treated with either DMSO or 0.5 μM SR3677 prior to addition of either DMSO or 10 μM CCCP for 24 hours. Following treatment, cells were washed, fixed with 4% paraformaldehyde and stained with crystal violet dye. B) The OD at 550 nm was measured to assess crystal violet staining.
To determine whether these findings could be translated into dopaminergic neurons, the study was continued in the dopaminergic neuroblastoma SH-SY5Y cell line. Parkin undergoes a similar CCCP-dependent subcellular transition from cytosol to mitochondria in these cells^12. First, whether the viability of these cells would be improved by SR3677 was investigated. Initially, experiments were conducted using crystal violet staining as an indicator of cell viability. […] Next, SH-SY5Y cells were differentiated into a more neuron-like population according to protocols previously described^10 and ATP levels were measured. […] Varying concentrations of SR3677 were co-administered alongside the PD-causing toxin paraquat.

The test system of data set [6] is HeLa cells stably expressing GFP parkin and mito-DsRed. The data set can be described thus: Mitochondrial clearance assay. The data set is classed as cell-based. To be noted: pre-treated with DMSO, 24 hour 10 μM CCCP. How it is done:
HeLa cells stably expressing GFP parkin and mito-DsRed were seeded into 12-well plates containing coverslips and allowed to adhere overnight. Cells were then treated with DMSO or 0.5 μM SR3677 for 2 hours prior to addition of 10 μM CCCP for 24 hours. Cells were then washed with PBS, fixed with 4% PFA and washed with PBS again prior to the mounting of coverslips onto glass slides. Mitochondrial clearance was quantified by counting the number of cells in each treatment to retain mito-DsRed signal. 3 independent trials were performed with at least 50 cells quantified per trial.

For data set [7] the following is noted: used in Japan; cited from earlier work.
For data set [8] the following is noted: cited from earlier work.
In data set [9] the target is ROCK1 (Homo sapiens, UniProt Q13464). To be noted: biochemical and cell-based assays, review; cited from earlier work.
In data set [10] the target is ROCK2 (Homo sapiens, UniProt O75116). To be noted: biochemical and cell-based assays, previous studies; cited from earlier work.
The test system of data set [11] is HEK293 GFP Parkin cells. The data set can be described thus: Parkin recruitment assay. In kind it is cell-based. The method, then:
HEK293 GFP Parkin cells were seeded into 12-well plates containing coverslips. Cells were treated with small molecules for 2 hours prior to mitophagy induction with 10 μM CCCP, unless indicated otherwise. Following fixation with 4% PFA, immunostaining was carried out using anti-ATP5A primary antibody and anti-mouse Alex Fluor 568.
To measure the percentage of cells with Parkin localized to mitochondria a 2 step process was employed: (1) whole cell segmentation based on GFP Parkin using CellProfiler software and (2) classification into Parkin distribution subpopulation using CellProfiler Analyst. The percentage of cells with Parkin localized to mitochondria was determined in each image. Images were taken at 20× magnification for this experiment, resulting in the classification of at least 300 cells in each treatment group per trial.

The subject of data set [12] is HeLa cells. The data set can be described thus: Mito-QC assay (targeting of mitochondria to lysosomes). The data set is classed as cell-based. The following applies: 50 μM chloroquine 16 hours pre-treatment. How it is done: HeLa cells were seeded into 6-well plates containing glass coverslips and allowed to adhere overnight. Cells were co-transfected with RGOMP25 and Cerulean-Parkin plasmids 24 hours prior to treatments. E-64 and leupeptin were added along with either DMSO or 10 μM CCCP for 6 hours prior followed by a PBS wash, fixation with 4% PFA and a final PBS wash prior to mounting onto glass slides with Fluoromount.
Cells were treated with 50 μM chloroquine for 16 hours prior to addition of E64, leupeptin, SR3677 and CCCP in the indicated treatment group. For the in vivo mitoQC assays, 5 7-day old male TH-GAL4>UAS-mitoQC were placed into vials containing water (control), sublethal 1 mM paraquat, 1 mM SR3677 alone and in combination with paraquat for 7 days. […] Fly brains were mounted in VectaShield™ mounting medium for imaging using the Zeiss LSM700 confocal fluorescence microscope with 40× 1.4 NA Oil Plan-APOCRAMAT objective and the appropriate lasers and filter. […]
Quantification of the RG assay was done using Fiji software. […] A red/green fluorescence intensity ratio was determined for each pixel. Pixels were considered red-only if the red/green fluorescence ratio was greater than or equal to 1.5. The area of red-only pixels over the total non-background area was determined and averaged across 4 independent trials in which at least 20 cells were quantified per treatment.

ROCK1, sequence (Q13464 whole entry, species assumed): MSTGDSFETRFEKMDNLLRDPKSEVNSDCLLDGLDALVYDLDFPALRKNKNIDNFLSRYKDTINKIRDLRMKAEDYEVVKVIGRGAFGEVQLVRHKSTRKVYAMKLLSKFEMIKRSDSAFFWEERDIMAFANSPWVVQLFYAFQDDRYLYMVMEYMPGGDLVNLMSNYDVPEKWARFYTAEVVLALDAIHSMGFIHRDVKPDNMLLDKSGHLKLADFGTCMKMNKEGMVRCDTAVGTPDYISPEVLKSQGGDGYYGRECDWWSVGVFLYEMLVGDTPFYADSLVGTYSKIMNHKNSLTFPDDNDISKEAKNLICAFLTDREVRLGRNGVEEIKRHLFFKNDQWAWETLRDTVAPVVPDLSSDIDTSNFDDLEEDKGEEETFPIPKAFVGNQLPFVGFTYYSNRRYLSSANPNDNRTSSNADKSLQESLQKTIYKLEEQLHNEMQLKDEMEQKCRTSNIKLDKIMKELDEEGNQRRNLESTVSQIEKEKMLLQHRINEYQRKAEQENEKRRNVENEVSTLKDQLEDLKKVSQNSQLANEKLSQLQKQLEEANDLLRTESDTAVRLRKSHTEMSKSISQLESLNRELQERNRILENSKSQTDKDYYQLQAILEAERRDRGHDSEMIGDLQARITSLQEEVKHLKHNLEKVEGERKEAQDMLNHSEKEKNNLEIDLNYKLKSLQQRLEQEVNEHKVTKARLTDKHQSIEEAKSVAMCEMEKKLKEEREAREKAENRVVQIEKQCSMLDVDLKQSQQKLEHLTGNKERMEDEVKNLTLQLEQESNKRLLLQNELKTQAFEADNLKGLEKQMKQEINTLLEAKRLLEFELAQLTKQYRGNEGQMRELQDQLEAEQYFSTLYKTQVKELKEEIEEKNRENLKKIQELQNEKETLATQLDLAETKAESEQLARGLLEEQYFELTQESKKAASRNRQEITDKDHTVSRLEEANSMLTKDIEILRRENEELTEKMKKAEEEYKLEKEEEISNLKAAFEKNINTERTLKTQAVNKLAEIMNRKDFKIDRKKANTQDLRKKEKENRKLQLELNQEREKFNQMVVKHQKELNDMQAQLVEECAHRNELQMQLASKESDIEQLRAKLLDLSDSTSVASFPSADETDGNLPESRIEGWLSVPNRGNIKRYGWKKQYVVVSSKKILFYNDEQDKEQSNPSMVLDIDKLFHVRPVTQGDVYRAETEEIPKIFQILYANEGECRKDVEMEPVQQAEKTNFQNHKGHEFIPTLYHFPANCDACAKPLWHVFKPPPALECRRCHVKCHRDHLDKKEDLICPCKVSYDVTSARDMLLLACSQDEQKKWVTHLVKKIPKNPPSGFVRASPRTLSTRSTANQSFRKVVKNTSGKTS
ROCK2, sequence (O75116 whole entry): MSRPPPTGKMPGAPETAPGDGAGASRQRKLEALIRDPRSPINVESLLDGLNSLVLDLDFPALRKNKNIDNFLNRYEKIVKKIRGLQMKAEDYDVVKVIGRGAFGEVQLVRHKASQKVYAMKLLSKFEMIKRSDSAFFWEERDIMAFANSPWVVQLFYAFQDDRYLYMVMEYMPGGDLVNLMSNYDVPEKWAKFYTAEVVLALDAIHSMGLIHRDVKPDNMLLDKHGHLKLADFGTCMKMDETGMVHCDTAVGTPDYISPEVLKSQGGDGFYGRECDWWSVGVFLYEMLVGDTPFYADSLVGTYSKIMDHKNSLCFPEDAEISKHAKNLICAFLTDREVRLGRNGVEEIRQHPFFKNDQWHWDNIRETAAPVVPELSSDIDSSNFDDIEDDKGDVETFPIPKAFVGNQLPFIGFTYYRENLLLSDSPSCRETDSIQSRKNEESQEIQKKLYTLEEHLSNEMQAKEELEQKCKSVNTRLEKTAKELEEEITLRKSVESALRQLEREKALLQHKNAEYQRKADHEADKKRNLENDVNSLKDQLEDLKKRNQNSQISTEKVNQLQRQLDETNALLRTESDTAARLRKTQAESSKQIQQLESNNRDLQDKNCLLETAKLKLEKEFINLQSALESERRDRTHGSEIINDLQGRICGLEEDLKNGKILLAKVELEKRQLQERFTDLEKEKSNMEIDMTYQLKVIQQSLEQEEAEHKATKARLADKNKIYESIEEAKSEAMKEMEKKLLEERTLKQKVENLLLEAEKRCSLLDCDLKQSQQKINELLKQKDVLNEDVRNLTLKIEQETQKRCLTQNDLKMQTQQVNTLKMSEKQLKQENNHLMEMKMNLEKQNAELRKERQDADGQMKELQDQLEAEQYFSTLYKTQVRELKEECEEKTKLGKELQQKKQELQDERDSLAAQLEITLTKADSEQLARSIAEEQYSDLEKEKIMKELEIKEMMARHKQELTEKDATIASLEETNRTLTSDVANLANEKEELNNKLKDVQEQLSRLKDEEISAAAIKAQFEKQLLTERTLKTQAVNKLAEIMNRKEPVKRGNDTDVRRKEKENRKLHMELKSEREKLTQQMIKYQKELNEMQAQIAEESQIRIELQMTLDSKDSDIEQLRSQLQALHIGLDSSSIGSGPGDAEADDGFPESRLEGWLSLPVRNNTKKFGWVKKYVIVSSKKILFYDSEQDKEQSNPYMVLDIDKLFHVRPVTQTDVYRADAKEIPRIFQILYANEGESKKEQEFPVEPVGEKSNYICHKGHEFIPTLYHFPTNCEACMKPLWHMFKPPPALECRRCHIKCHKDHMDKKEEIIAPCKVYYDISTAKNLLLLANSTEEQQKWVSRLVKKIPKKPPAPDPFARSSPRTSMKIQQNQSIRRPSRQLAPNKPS

As to `CC(C)(C)c1cc(NC(=O)Nc2ccc(-c3cn4c(n3)sc3cc(OCCN5CCOCC5)ccc34)cc2)no1` [Ac220], the “degradation of Mfn2” value in data set [1] is “inhibited”. Besides, the “PINK1 accumulation in response to mitochondrial damage” value in [2] was “fails to accumulate”. Besides, the “rank in the kinase inhibitor library screen (rank order by z-score)” value in data set [3] is recorded as 475/480. In addition, in data set [4], the Parkin recruitment result is on record as “inhibited Parkin recruitment”.
As for `N#CC(C#N)=NNc1cccc(Cl)c1` [CCCP, carbonyl cyanide m-chlorophenylhydrazone], the crystal violet staining entry in data set [5] is on record as “reduced the amount of staining”. The “% of cells with mitochondrial Parkin” value came to 71.2±2.6% in [3] (Prestwick library screen) and 83.4±2.3% in data set [3] (kinase inhibitor library screen). In addition, the “% of cells that retained mito-DsRed” value in data set [6] was 47.5±8.25%.
Turning to `O=S(=O)(c1cccc2cnccc12)N1CCCNCC1` [Fasudil], in [7], the “safety and efficacy in vasospasm following subarachnoid hemorrhage” value is “safety and efficacy”. In addition, the “class in the screen (FIG. 1b)” value in data set [3] (ROCK inhibitors, 4 μM plus CCCP) is “Enhancers of Parkin recruitment”.
As to `C[C@@H](N)[C@H]1CC[C@H](C(=O)Nc2ccncc2)CC1` [Y27632], the cell permeability entry in data set [8] is reported as “poor cell permeability”. Besides, the ROCK1 inhibition entry in data set [9] was “sufficiently inhibit both ROCK1 and ROCK2”. In addition, the ROCK2 inhibition result in data set [10] was “sufficiently inhibit both ROCK1 and ROCK2”. In [3], the “rank in the kinase inhibitor library screen (rank order by z-score)” value is 9/480. The “Parkin recruitment on re-test” value in data set [11] (10 μM, 2-hour treatment, CCCP) is recorded as “recapitulated the effects observed following overnight incubation”. Besides, in data set [11] (compound alone), the “Parkin distribution in the absence of CCCP” value is on record as “diffuse”.
As for `CCN(CC)CCCC(C)Nc1ccnc2cc(Cl)ccc12` (centres unmarked) [chloroquine], in data set [12], the “effect on SR3677-mediated enhancement of mitophagy” value is on record as “abrogates SR3677-mediated enhancement of mitophagy”.
